In US20240237661A1, “ANTIMICROBIAL SOLUTIONS AND USES THEREOF” (EcoPlanet Environmental LLC, priority 2023, published 2024):
“And” between values parts separate entries of the source, which are not always exact repeats. Equal entries are not always repeated.

Experiments:
[1] = tested on: range of target microorganisms; conditions: both in gas and MIC assays; cited from earlier work
[2] = tested on: nalidixic acid-resistant Salmonella Enterica serovar Typhimurium; test: Wing wash model: Salmonella counts in rinsate of experimentally contaminated broiler wings; type: cell-based
Protocol: As a non-limiting example, the efficacy of Sx on the reduction of nalidixic acid-resistant Salmonella spp. on experimentally contaminated broiler carcasses (using a wing wash model) was tested. Sx was tested at 100 ppm and 200 ppm, with or without lecithin and was compared with an untreated negative control group and peracetic Acid (PAA) at 200 ppm as a commercial comparator. […] Almost 0.6 to 3.0 log reduction has been observed in previous iterations. During those studies, the effectiveness of Sx was studied at different time intervals and fixed time interval. […] Whereas, based on literature and food safety inspection services (USDA) directive 7120.1, PAA has been recommended with the dose range of 50 ppm to 2000 ppm. Under field conditions, most of the establishments use 200 ppm as a whole carcass rinse. Therefore, in this iteration, Sx was compared with PAA at 200 ppm level. In this study, Sx was tested at 1.25% and 2.5% level which are equivalent to 100 ppm and 200 ppm of propionic acid concentration. Lecithin was added to the Sx solution at the rate of 0.02%. Lecithin is believed to enhance the cell wall penetration of propionic acid and isoamyl hexanoate leading to better antimicrobial activity.
For this study, a WHIRL-PAK® bag containing one pair of chicken wings was the experimental unit. On approximately day 47 of the broilers age, approximately 54 broilers were euthanized by severing the jugular vein after euthanization. The carcass was thoroughly washed using hot water. The feathers were removed using a mechanical plucker. The wings were separated from the whole carcass and preserved in a cooler containing ice. Each treatment group was represented by nine sample bags (replicates) containing one pair of wings. Three sample bags from each treatment group were pooled together and identified as first, second and third set as shown in Table 3.
To start with, eighteen pairs of wings were brought to the hood and sprayed with Salmonella typhimurium (Nalidixic Acid Resistant [NAR]) inoculum at the rate of 10 mL per pair. The carcasses were allowed to dry for 15 minutes. Following drying, eighteen pairs of wings were inserted into WHIRL-PAK bags at the rate of one pair per WHIRL-PAK bag. T1 bags were added with non-medicated, sterilized reverse osmosis (SRO) water at the rate of one liter per bag. T2-T6 bags were added with respective medicated, SRO water at the rate of one liter per bag. All the bags were incubated for 15 mins in a cooler containing ice cubes. After 15 minutes, the carcass in each bag was removed from the SRO water bag and inserted into a fresh WHIRL-PAK bag.
Approximately 100 mL of buffered peptone water was added into each bag and agitated for one minute. […]

| SMILES | Bioactivity by itself [1] | Salmonella count (MPN) ([2]; Salmonella count per mL of wing wash rinsate after 15 mins incubation in medicated SRO water, mean of 9 replicates, concentration in label) | MPN (Actual numbers) ([2]; Salmonella count per mL of wing wash rinsate after 15 mins incubation, concentration in label) | % Reduction ([2]; decrease of Salmonella count compared to untreated control, 15 mins incubation, P<0.05) | Log Reduction ([2]; overall reduction of salmonella count compared to untreated control, 15 mins incubation) [Log] |
| --- | --- | --- | --- | --- | --- |
| CC(C)C(=O)O [isobutyric acid] | some limited bioactivity | – | – | – | – |
| CC(=O)OO [PAA 200 ppm, peracetic Acid] | – | 6.51E+05±5.68E+05 cfu/mL and 6.51E+05 cfu/mL | 650,694 | 84% and 84.55% | 0.77 |
